In brackets after ≈: the same amount, converted by molar mass.
Legend:
Assay type in all cases: functional
KB = test: Cytotoxicity against human KB cells; details: read-out: ED50 (the source's name)
L1210 = test: Cytotoxicity against mouse L1210 cells; details: read-out: ED50 (the source's name)
P388 [1] = test: Cytotoxicity against mouse P388 cells; details: read-out: ED50 (the source's name)
HCT-8 = test: Cytotoxicity against human HCT8 cells; details: read-out: ED50 (the source's name)
P388 [2] = test: Antileukemic activity against mouse P388 cells xenografted in mouse at 3 mg/kg after 3 days relative to control

Compound | EC50 (KB) [µg/mL] | EC50 (L1210) [µg/mL] | EC50 (P388 [1]) [µg/mL] | EC50 (HCT-8) [µg/mL] | T/C (P388 [2]) [%]
C=CC(=O)C#CC#C/C=C\C(=O)CCCCCCC | > 10 | > 10 | > 10 | 3.7 (≈ 14.4 µM) | –
CCC[C@@H](O)/C=C/C=C/C=C/C#CC#CCCCO [CICUTOXIN] | 2 (≈ 7.74 µM) | – | – | – | 165
COc1cccc2c1C(=O)c1c(O)c3c(c(O)c1C2=O)C[C@@](O)(C(=O)CO)C[C@@H]3O[C@H]1C[C@H](N)[C@H](O)[C@H](C)O1.Cl [DOXORUBICIN HYDROCHLORIDE] | – | – | – | 0.3 | –
COc1cc([C@@H]2c3cc4c(cc3[C@@H](O[C@@H]3O[C@@H]5CO[C@@H](C)O[C@H]5[C@H](O)[C@H]3O)[C@H]3COC(=O)[C@H]23)OCO4)cc(OC)c1O [ETOPOSIDE] | 0.1 (≈ 0.17 µM) | 1.6 (≈ 2.72 µM) | 2.6 (≈ 4.42 µM) | – | –
C=CC(C#CC#C/C=C\C(CCCCCCC)OC(C)=O)OC(C)=O (stereo not drawn) [SESELIDIOL DIACETATE] | 4 | 5.5 | 5.2 | 7.8 | –
C=CC(O)C#CC#C/C=C\C(O)CCCCCCC (stereo not drawn) [SESELIDIOL] | 1 (≈ 3.84 µM) | 3.3 (≈ 12.7 µM) | 4.9 (≈ 18.8 µM) | 10 (≈ 38.4 µM) | –

From ChEMBL document CHEMBL1158914, “Antitumor agents, 115. Seselidiol, a new cytotoxic polyacetylene from Seseli mairei” (1990)
